Laboratory results reported in ChEMBL document CHEMBL2086282, “2-Substituted 4,5-dihydrothiazole-4-carboxylic acids are novel inhibitors of metallo-β-lactamases” (Bioorg Med Chem Lett, 2012).

Tests used:
Beta-lactamase = Beta-lactamase (Pseudomonas aeruginosa, UniProt Q79MP6)
Beta-lactamase II [1] = target: T1, Beta-lactamase II (Bacillus anthracis, UniProt Q93T40)
T1 sequence (Q93T40 whole entry): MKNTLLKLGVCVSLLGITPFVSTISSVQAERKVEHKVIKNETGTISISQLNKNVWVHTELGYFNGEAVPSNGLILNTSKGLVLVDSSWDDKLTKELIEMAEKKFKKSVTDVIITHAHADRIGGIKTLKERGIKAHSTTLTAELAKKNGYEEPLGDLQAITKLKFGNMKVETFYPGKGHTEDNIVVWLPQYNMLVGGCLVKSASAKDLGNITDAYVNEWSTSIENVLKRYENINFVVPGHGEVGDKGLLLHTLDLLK

Beta-lactamase II [2] = target: T1, Beta-lactamase II; remark: listed apart in the source

Beta-lactamase, sequence (Q79MP6 whole entry): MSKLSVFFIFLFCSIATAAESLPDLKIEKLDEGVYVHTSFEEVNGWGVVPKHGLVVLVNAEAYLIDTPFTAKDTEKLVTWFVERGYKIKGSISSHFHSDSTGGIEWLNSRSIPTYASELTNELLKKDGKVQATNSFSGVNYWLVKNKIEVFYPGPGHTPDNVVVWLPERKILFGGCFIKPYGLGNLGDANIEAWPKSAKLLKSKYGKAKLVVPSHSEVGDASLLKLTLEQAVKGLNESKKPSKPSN

Row | SMILES | IC50 (Beta-lactamase) [µM] | IC50 (Beta-lactamase II [1]) [µM] | Ki (Beta-lactamase II [1]) [µM] | IC50 (Beta-lactamase II [2]) [µM]
1 | O=C(O)c1csc(-c2ccccc2)n1 | > 200 | > 200 | – | –
2 | O=C(O)[C@@H]1CSC(c2ccccc2)N1 (stereo partly drawn) | > 200 | > 200 | – | –
3 | O=C(O)c1csc(Cc2ccccc2)n1 | – | > 200 | – | –
4 | O=C(Cc1ccccc1)NCC1=N[C@H](C(=O)O)CS1 | > 200 | > 200 | – | –
5 | O=C(O)[C@@H]1CSC(Cc2ccccc2)=N1 | > 200 | > 200 | – | –
6 | O=C(O)[C@@H]1CSC(Cc2ccccc2)N1 (stereo partly drawn) | > 200 | > 200 | – | –
7 | O=C(O)[C@@H]1CSC(c2ccc(Cl)cc2)=N1 | > 200 | > 200 | – | –
8 | O=C(O)[C@@H]1CSC(c2ccc(Br)cc2)=N1 | > 200 | > 200 | – | –
9 | Nc1cccc(C2=N[C@H](C(=O)O)CS2)c1 | 77 | 4.9 | 5.1 | –
10 | CC(=O)Nc1cccc(C2=N[C@H](C(=O)O)CS2)c1 | > 200 | > 200 | – | –
11 | CC(C)(C)OC(=O)Nc1cccc(C2=N[C@H](C(=O)O)CS2)c1 | > 200 | 74.1 | – | –
12 | COc1cccc(CC(=O)NCC2=N[C@H](C(=O)O)CS2)c1 | > 200 | > 200 | – | –
13 | CC(C)(C)OC(=O)NCC1=N[C@H](C(=O)O)CS1 | > 200 | > 200 | – | –
14 | O=C(NCC1=N[C@H](C(=O)O)CS1)OCc1ccccc1 | > 200 | > 200 | – | –
15 | O=C(O)[C@@H]1CSC(c2ccccc2O)=N1 | > 200 | > 200 | – | –
16 | C[C@H](CS)C(=O)N1CCC[C@H]1C(=O)O [CAPTOPRIL] | – | 25.8 | 17.9 | –
17 | O=C(O)CN(CCN(CC(=O)O)CC(=O)O)CC(=O)O [EDETIC ACID] | – | – | – | 1060
